Values quoted from earlier work as cited in patent US12644083B2, “Dual circulation microphysiological system” (CN Bio Innovations Limited, priority 2019, dated 2026).

System: primary human hepatocytes
Details: for rate of metabolism (in words): general statement: considered to be slowly metabolised; for test phase required to give measurable changes (metabolism): single loop 3D liver scaffold system

SMILES	rate of metabolism (in words)	test phase required to give measurable changes (metabolism) [days]
CC(C)N(CCC(C(N)=O)(c1ccccc1)c1ccccn1)C(C)C (stereo not shown) [disopyramide]	slowly metabolised	5
CC(C)(C)NC[C@H](O)COc1nsnc1N1CCOCC1 [timolol]	slowly metabolised	5
